Test results as given in PMC8179109, “Introducing affinity and selectivity into galectin-targeting nanoparticles with fluorinated glycan ligands” (Chemical Science, 2020).

Biological target: T1, BiGalHexNAcP (Bifidobacterium longum, UniProt A0ACD7UTG9)
T1 construct: gene BLIJ_2251
Test: one-pot two-enzyme synthesis of disaccharide (reverse phosphorolysis)
Type: biochemical
Details: acceptor; donor galactose 1-phosphate formed in situ by BiGalK; isolated on semi-preparative scale

T1 sequence (A0ACD7UTG9 entry or part of it): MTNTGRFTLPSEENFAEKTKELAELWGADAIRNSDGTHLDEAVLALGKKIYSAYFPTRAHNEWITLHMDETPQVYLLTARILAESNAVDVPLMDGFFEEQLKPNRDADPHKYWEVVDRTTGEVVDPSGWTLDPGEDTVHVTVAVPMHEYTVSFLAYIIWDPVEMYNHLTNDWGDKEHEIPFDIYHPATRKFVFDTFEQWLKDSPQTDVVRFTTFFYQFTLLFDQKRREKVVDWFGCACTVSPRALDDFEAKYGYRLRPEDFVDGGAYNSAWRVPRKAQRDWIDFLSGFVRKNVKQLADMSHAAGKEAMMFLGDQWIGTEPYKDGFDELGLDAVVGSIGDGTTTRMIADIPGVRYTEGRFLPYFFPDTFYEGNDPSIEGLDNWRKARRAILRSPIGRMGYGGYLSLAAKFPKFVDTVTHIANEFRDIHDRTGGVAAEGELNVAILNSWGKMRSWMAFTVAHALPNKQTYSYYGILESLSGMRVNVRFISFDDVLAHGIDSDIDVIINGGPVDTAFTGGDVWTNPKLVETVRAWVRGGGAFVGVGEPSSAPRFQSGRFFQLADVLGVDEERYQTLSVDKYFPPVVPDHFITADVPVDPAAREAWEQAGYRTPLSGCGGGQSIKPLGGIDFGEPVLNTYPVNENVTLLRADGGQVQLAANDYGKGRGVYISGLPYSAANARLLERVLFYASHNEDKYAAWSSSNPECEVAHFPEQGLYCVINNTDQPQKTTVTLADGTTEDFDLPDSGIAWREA

In the case of CC(=O)N[C@H]1[C@H](OCCCN=[N+]=[N-])O[C@H](CO)[C@@H](O)[C@@H]1O[C@@H]1O[C@H](CO)[C@H](O)[C@H](O)[C@H]1O [compound 15], the “one-pot two-enzyme synthesis of disaccharide (reverse phosphorolysis)” value is reported as “Lacto-N-biose and fluorinated derivatives were efficiently synthesized on semi-preparative scale”.
